Calls of active or inactive are those of the source. The rule behind the calls is not given here.
How the values were obtained:
[1] = tested on: A549; test: Cytotoxicity against human A549 cells assessed as reduction in cell viability incubated for 48 hrs by MTT assay; type: functional, cell-based; conditions: A549, 48 h
[2] = Prodrug release in TE buffer assessed as increase in camptothecin level at 10 uM measured within 10 mins in the presence of GSH by HPLC analysis; type: ADME
[3] = tested on: SMMC-7721; test: Cytotoxicity against human SMMC-7721 cells assessed as reduction in cell viability incubated for 48 hrs by MTT assay; type: functional, cell-based; conditions: SMMC-7721, 48 h
[4] = tested on: HeLa; test: Cytotoxicity against human HeLa cells assessed as reduction in cell viability incubated for 48 hrs by MTT assay; type: functional, cell-based
[5] = tested on: HepG2; test: Cytotoxicity against human HepG2 cells assessed as reduction in cell viability incubated for 48 hrs by MTT assay; type: functional, cell-based; conditions: HepG2, 48 h
[6] = Prodrug activation assessed as increase in fluorescence intensity in presence of GSH at 10 uM incubated for 60 mins; conditions: 1 h
[7] = Prodrug activation in TE buffer assessed as alterations in fluorescence intensity at 10 uM incubated for 60 mins; conditions: 1 h
[8] = tested on: HepG2; test: Antitumor activity against human HepG2 cells xenografted BALB/c mouse assessed as reduction in tumor growth at 30 mg/kg, ip administered for once every 3 days measured after 15 days; type: functional, organism-based; conditions: time 15.0 day
[9] = Drug uptake in human HepG2 cells increase in fluorescence level at 10 uM by fluorescence microscopy; type: ADME, cell-based; conditions: hepg2, 10 µM, TDE = time-dependent effect
[10] = Antitumor activity against human HepG2 cells xenografted BALB/c mouse assessed as reduction in tumor weight at 30 mg/kg, ip administered for once every 3 days measured after 15 days; type: functional; design: scale not given: the % may be the effect or the level left; conditions: time 15 day
[11] = Toxicity in human HepG2 cells xenografted BALB/c mouse assessed as reduction in body weight at 30 mg/kg, ip administered for once every 3 days measured after 15 days; type: organism-based; design: scale not given: the % may be the effect or the level left; conditions: in vivo, 360 h, time 15 day
[12] = Toxicity in BALB/c mouse xenografted with human HepG2 cells assessed as death at 45 mg/kg, ip administered for once every 3 days measured after 15 days; type: organism-based; conditions: in vivo, 360 h, time 15 day
[13] = tested on: HepG2; test: Cytotoxicity against human HepG2 cells assessed as reduction in cell viability in presence of H2O2 incubated for 48 hrs by MTT assay; type: functional, cell-based
[14] = Prodrug activation assessed as increase in ferro cytochrome c production in presence of GSH and SOD by cytochrome c reduction assay
[15] = GSH reactivity assessed as oxidation of GSH to GSSG at 10 uM measured after 60 mins by HPLC analysis; type: ADME; conditions: 1 h
[16] = Prodrug activation assessed as fluorescence intensity in presence of 5 mM GSH at 100 uM incubated for 12 hrs further incubated with selenol probe Probe 1 followed by addition of 1 mM GSH measured after 4 mins; conditions: 5000 µM
[17] = Prodrug activation in human HepG2 cells assessed as increase in camptothecin level by measuring fluorescence level at 10 uM by fluorescence microscopy; type: cell-based; conditions: hepg2, 10 µM, TDE = time-dependent effect, time 15-90 min
[18] = Prodrug activation assessed as production of selenol intermediate concentration in the presence of GSH incubated with Probe 1
[19] = tested on: HepG2; test: Induction of apoptosis in human HepG2 cells assessed as increase in apoptotic cells for 48 hrs by FITC-annexin V/PI double staining based flow cytometry; type: functional, cell-based
[20] = Prodrug activation in TE buffer assessed as fold change in fluorescence intensity at 10 uM in presence of GSH
[21] = tested on: HepG2; test: Inhibition of redox balance in human HepG2 cells assessed as reduction in cellular thiols incubated for 24 hrs; type: functional, cell-based
[22] = tested on: HepG2; test: Inhibition of redox balance in human HepG2 cells assessed as reduction in GSH/GSSG ratio incubated for 24 hrs; type: functional, cell-based
[23] = Prodrug activation assessed as changes in fluorescence intensity in presence of GSH at 100 uM incubated for 12 hrs further incubated with selenol probe Probe 1
[24] = tested on: HepG2; test: Induction of ROS generation in human HepG2 cells assessed as increase in ROS accumulation for 6 hrs by DCFH-DA staining based fluorescence assay; type: functional, cell-based; conditions: dose 2-5 µM
[25] = Prodrug activation assessed as increase in fluorescence intensity in presence of Cys at 10 uM incubated for 15 mins by HPLC analysis; conditions: 0.25 h

Compound: CC[C@@]1(OC(=O)OCCSSCCO)C(=O)OCc2c1cc1n(c2=O)Cc2cc3ccccc3nc2-1
- IC50 [1]: > 10 µM
- Drug metabolism [2]: Metabolite_Notdetected
- IC50 [3]: > 10 µM
- IC50 [4]: 9.62 µM
- IC50 [5]: 4.86 µM

Compound: CC[C@@]1(OC(=O)OCCCCCCO)C(=O)OCc2c1cc1n(c2=O)Cc2cc3ccccc3nc2-1
- IC50 [1]: > 10 µM
- IC50 [3]: > 10 µM
- IC50 [4]: > 10 µM
- IC50 [5]: > 10 µM

Compound: CC[C@@]1(OC(=O)NC2C[Se][Se]C2)C(=O)OCc2c1cc1n(c2=O)Cc2cc3ccccc3nc2-1
- Drug metabolism [6]: Metabolite_Notdetected
- IC50 [1]: > 10 µM
- Drug metabolism [7]: Metabolite_Notdetected
- IC50 [3]: > 10 µM
- IC50 [4]: > 10 µM
- IC50 [5]: > 10 µM

Compound: CC[C@@]1(O)C(=O)OCc2c1cc1n(c2=O)Cc2cc3ccccc3nc2-1 [CAMPTOTHECIN]
- Activity [8]: Active
- Drug uptake [9]: Tde
- IC50 [3]: > 10 µM
- IC50 [4]: 8.28 µM
- Activity [10]: 53%
- IC50 [5]: 3.5 µM
- Activity [11]: < 10%
- Activity [12]: Toxic
- Activity [13]: Active

Compound: CC[C@@]1(OC(=O)OC2CCCC2)C(=O)OCc2c1cc1n(c2=O)Cc2cc3ccccc3nc2-1
- IC50 [1]: > 10 µM
- IC50 [3]: > 10 µM
- IC50 [4]: > 10 µM
- IC50 [5]: > 10 µM

Compound: CC[C@@]1(OC(=O)NC2CCCC2)C(=O)OCc2c1cc1n(c2=O)Cc2cc3ccccc3nc2-1
- IC50 [1]: > 10 µM
- IC50 [3]: > 10 µM
- IC50 [4]: > 10 µM
- IC50 [5]: > 10 µM

Compound: CC[C@@]1(OC(=O)OC2(CO)C[Se][Se]C2)C(=O)OCc2c1cc1n(c2=O)Cc2cc3ccccc3nc2-1
- Drug metabolism [6]: Metabolite_Detected
- IC50 [1]: > 10 µM
- Drug metabolism [7]: Metabolite_Notdetected
- IC50 [3]: > 10 µM
- IC50 [4]: 9.17 µM
- IC50 [5]: 6.02 µM

Compound: CC[C@@]1(OC(=O)OCC[Se][Se]CCO)C(=O)OCc2c1cc1n(c2=O)Cc2cc3ccccc3nc2-1
- Drug metabolism [14]: Not Active
- Drug metabolism [15]: Metabolite_Detected
- Activity [8]: Active
- Drug metabolism [16]: Metabolite_Detected
- Drug metabolism [17]: Tde
- Drug metabolism [18]: 104.4 µM
- Activity [19]: Active
- IC50 [1]: 3.3 µM
- fold change (FC) [20]: 10
- Drug metabolism [7]: Metabolite_Notdetected
- Activity [2]: 90%
- inhibition [21]: Active
- IC50 [3]: 6.4 µM
- IC50 [4]: 2.56 µM
- inhibition [22]: Active
- Activity [23]: Not Active
- Activity [24]: Active
- Activity [10]: 75%
- IC50 [5]: 2.54 µM
- Activity [11]: < 10%
- Activity [12]: Toxic
- Drug metabolism [25]: Metabolite_Detected

From ChEMBL document CHEMBL5029187 (J Med Chem, 2021)
